Assay results reported in US20220080053A1, “USE OF ANTI-CEACAM5 IMMUNOCONJUGATES FOR TREATING LUNG CANCER” (SANOFI, priority 2019, published 2022).

T1: human CEACAM5 (Homo sapiens, UniProt P06731)
T1 construct: soluble recombinant CEACAM5 as capture antigen
T1 sequence (P06731 35-685 limits assumed): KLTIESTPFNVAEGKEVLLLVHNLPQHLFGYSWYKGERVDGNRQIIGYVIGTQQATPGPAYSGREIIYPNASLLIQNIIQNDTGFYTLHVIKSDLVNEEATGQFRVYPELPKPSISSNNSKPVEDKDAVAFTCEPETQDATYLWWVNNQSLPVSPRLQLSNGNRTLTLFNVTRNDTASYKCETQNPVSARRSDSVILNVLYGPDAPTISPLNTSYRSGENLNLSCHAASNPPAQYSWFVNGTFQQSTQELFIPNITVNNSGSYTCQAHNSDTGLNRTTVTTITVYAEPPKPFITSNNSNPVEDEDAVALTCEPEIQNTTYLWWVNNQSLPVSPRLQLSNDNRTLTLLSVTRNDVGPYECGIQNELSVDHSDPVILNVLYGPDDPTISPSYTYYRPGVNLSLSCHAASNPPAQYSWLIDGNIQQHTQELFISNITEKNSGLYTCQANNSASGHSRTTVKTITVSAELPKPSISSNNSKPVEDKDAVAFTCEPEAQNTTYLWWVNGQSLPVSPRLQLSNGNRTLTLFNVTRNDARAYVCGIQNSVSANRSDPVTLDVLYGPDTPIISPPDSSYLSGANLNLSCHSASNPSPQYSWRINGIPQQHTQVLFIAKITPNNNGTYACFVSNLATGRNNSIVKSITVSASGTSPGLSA

B1: Mab2K52R: variant of antibody MAb2 generated by introducing a K52R substitution in the CDR2-L (antibody, V domains shown)
VH: EVQLQESGGVLVKPGGSLKLSCAASGFVFSSYDMSWVRQTPEKRLEWVAYISSGGGITYFPDTVQGRFTVSRDNAKNTLYLQMNSLKSEDTAIYYCAAHYFGSSGPFAYWGQGTLVTVSA
VL: DIQMTQSPASLSASVGETVTITCRASENIFSYLAWYQQKQGKSPQLLVYNTRTLAEGVPSRFSGSGSGTQFSLKINSLQPEDFGSYYCQHHYGTPFTFGSGTKLEIK

What was measured:
[1] = test system: Macaca fascicularis CEACAM5; conditions: cited from earlier work
[2] = test system: other CEACAM family members; conditions: cited from earlier work
human CEACAM5 = target: T1, human CEACAM5; assay: Affinity for human CEACAM5; assay type: binding
Text: (§1) In an attempt to produce new antibodies against CEACAM5 surface protein with optimal characteristics for therapeutic purposes, mice were immunized with recombinant proteins and with tumour cells. They have screened hundreds of hybridoma using ELISA on several recombinant proteins of the CEACAM family, and flow cytometry with relevant cell lines, in order to select only immunoglobulins (IgGs) with the advantageous profile. Unexpectedly, they were able to select hybridoma clones and produce corresponding mature IgGs that comprise all of the desired features. […] In a cellular context, these antibodies display high affinity for tumor cells (in the nano-molar range). […] It can be experimentally assessed by a variety of known methods, such as measuring association and dissociation rates with surface plasmon resonance or measuring the EC50 (or apparent KD) in an immunochemical assay (ELISA, FACS). In these assays, the EC50 is the concentration of the antibody which induces a response halfway between the baseline and maximum after some specified exposure time on a defined concentration of antigen by ELISA (enzyme-linked immuno-sorbent assay) or cell expressing the antigen by FACS (Fluorescence Activated Cell Sorting). Affinity for human CEACAM5 or for Macaca fascicularis CEACAM5 may be determined as the EC50 value in an ELISA using soluble recombinant CEACAM5 as capture antigen.

[3] = test system: Macaca fascicularis CEACAM5; assay: Affinity for Macaca fascicularis CEACAM5; assay type: binding
Text: as §1

Chain of Macaca fascicularis CEACAM5 (as listed by the source): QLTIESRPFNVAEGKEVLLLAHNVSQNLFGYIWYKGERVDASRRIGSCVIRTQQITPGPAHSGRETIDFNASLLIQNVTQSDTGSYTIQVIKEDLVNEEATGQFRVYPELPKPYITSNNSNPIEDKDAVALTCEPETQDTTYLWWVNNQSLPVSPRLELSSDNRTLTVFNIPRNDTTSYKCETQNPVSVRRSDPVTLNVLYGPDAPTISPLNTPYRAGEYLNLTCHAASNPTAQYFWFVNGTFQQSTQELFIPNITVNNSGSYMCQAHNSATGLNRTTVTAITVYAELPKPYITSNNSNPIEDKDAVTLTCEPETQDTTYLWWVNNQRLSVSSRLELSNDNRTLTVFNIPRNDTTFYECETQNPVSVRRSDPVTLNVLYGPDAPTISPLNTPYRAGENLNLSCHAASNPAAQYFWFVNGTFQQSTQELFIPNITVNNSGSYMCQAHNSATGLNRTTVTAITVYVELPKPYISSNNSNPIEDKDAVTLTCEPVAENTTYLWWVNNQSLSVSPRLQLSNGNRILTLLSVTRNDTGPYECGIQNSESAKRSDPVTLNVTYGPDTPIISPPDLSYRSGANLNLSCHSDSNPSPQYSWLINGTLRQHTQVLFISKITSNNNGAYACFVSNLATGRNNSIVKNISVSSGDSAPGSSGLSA

Molecule	cross-reaction with CEACAM5 from Macaca fascicularis [1]	binding to related antigens / other CEACAM family members [2]	affinity for human CEACAM5 compared with MAb2 (human CEACAM5)	affinity for Macaca fascicularis CEACAM5 compared with MAb2 [3]
labetuzumab: Immunomedics anti-human CEACAM5 antibody used in clinical trials	not cross-reacting	not to bind	–	–
B1	–	–	essentially the same affinity	essentially the same affinity
